Test results from patent US20090113563A1, “Probe for detecting nuclear receptor agonist or antagonist and method for screening agonist or antagonist to nuclear receptor with the use of the same” (priority 2004, published 2009).
No end group written: not given here.

Columns and labels:
[1] = target: T1, human estrogen receptor αLBD (Homo sapiens, UniProt P03372); experiment: FRET probe (CFP-SRC-1 LXXLL-linker-ER αLBD-YFP) for estrogen receptor agonist/antagonist in living CHO-K1 cells; type: cell-based
T1 construct: expressed in transfected cells; host or cells: CHO-K1 (Chinese hamster ovary), pcDNA3.1(+)
T1 sequence (P03372 with tags, fused parts or gaps L306P/I326L/L327I/T334S/V368G/T371N/T483N/Q502R/S527N): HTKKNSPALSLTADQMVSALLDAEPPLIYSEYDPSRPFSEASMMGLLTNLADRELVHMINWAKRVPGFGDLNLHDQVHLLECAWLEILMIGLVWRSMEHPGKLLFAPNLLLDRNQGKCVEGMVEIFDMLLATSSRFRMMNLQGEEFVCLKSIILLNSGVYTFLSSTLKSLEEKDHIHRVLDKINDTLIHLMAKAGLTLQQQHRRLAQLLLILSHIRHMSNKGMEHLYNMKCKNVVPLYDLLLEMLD
Description: (§1) Each cell was cultured in Ham's F-12 medium supplemented with 10% fetal calf serum (FCS)b and Dulbecco's modified eagle medium supplemented with 10% FCS, 1.0 mM sodium pyruvate and 0.1 mM nonessential amino acids respectively at 37° C. in a humidified atmosphere 5% CO2. Cells were transfected with an expression vector pcDNA3.1(+) containing a probe in the presence of lipofectAMINE 2000 reagent in glass bottom dishes.
(§2) The cells were Chinese hamster ovary (CHO-K1) cells for a probe for detecting an agonist or an antagonist to an estrogen receptor or a peroxisome growth factor-activating receptor, and pig kidney (PK-15) cells for a probe for detecting an agonist or an antagonist to an androgen receptor.
(§3) Before imageing, the culture medium was replaced with Hanks' balanced salt solution.
(§4) The exposure time at 440±10 nm excitation was 100 ms.
The ED50 values were converted to relative recruitment ability (RRA; Non-Patent Document 34) to compare the relative abilities of the tested compounds to promote the recruitment of the binding-responsive site to the ligand-recognition site. The RRA were calculated using the following equation.

PPAR γ-LBD = target: T2, PPAR γ-LBD (Homo sapiens, UniProt P37231); experiment: FRET probe for peroxisome proliferator-activated receptor agonist/antagonist in living CHO-K1 cells; type: cell-based; conditions: 10 μM
T2 construct: expressed in transfected cells; host or cells: CHO-K1, pcDNA3.1(+)
T2 sequence (P37231 235-505): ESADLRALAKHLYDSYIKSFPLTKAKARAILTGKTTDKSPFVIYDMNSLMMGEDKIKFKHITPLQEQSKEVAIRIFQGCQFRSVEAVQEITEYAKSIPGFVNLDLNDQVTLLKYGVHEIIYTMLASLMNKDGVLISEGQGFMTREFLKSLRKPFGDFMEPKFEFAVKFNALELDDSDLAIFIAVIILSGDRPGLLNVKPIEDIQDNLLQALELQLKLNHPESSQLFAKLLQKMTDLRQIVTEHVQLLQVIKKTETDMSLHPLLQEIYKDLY
Description: According to nearly the same procedure as in the case of the above (A), a plasmid was constructed.
as §1, §2, §3, §4

[2] = target: T3, human androgen receptor LBD (Homo sapiens, UniProt P10275); experiment: FRET probe for androgen receptor agonist/antagonist in living PK-15 cells; type: cell-based
T3 construct: expressed in transfected cells; host or cells: PK-15 (pig kidney), pcDNA3.1(+)
T3 sequence (P10275 674-912): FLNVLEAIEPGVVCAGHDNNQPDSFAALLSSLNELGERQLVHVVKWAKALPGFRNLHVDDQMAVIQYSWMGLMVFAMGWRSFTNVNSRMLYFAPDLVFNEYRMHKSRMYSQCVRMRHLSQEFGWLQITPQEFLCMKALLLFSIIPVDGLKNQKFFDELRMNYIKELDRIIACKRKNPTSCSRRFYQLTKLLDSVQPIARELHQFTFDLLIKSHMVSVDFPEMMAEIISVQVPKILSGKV
Description: According to nearly the same procedure as in the cases of the above (A) and (B), a plasmid was constructed.
as §1, §2, §3, §4

[3] = target: T4, peroxisome growth factor-activating receptor γ ligand-binding domain (235-505aa) (Homo sapiens (Human), UniProt P37231 235-505); experiment: intramolecular CFP/YFP FRET of the probe in CHO-K1 cells, 10 µM 15d-PGJ2
T4 construct: also called PPAR γ-LBD
T4 sequence: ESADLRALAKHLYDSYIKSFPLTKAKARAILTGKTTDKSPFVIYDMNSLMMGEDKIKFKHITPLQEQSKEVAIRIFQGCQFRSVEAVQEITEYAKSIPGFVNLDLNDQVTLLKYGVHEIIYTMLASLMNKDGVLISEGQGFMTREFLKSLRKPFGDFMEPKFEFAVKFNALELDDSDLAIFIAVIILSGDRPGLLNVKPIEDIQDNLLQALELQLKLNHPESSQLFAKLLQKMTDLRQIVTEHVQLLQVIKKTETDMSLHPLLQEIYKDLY
Description: CHO-K1 cells expressing the probe (FIG. 2B) were stimulated by 10 μM 15d-PGJ₂ and the event was observed by following time course fo the changes in FRET.

[4] = target: T5, human estrogen receptor α ligand-binding domain (305-550aa) (human, UniProt P03372 305-550); experiment: cell-based or functional assay
T5 sequence (looked up): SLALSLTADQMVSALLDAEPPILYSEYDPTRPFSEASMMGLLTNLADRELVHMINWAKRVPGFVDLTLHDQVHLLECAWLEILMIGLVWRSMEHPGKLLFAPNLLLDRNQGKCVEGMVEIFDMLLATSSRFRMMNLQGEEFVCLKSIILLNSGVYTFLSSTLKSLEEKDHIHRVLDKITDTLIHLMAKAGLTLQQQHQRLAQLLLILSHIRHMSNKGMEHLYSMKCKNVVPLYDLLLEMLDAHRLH

[5] = target: T5, human estrogen receptor α …; experiment: intramolecular CFP/YFP FRET in living cells, 100 nM E2
[6] = target: T6, human androgen receptor ligand-binding domain (672-910aa) (human, UniProt O97775 665-903 (Pan troglodytes entry)); experiment: intramolecular CFP/YFP FRET in living cells, 100 nM DHT
T6 construct: also called AR-LBD; ligand-recognition site
T6 sequence: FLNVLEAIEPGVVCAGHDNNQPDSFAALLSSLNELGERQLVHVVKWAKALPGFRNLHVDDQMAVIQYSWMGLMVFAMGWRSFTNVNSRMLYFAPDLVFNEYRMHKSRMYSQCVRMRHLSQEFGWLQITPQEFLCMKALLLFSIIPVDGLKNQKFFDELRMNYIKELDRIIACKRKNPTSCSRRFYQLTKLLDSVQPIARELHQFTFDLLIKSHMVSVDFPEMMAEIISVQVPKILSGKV

4-hydroxytamoxifen [OHT]
change in FRET response [1]: no increase in the FRET

CCCCC/C=C/C=C1/C(=O)C=C[C@@H]1C/C=C\CCCC(=O)O [15d-PGJ2, 15-deoxy-Δ^12,14-prostaglandin J2]
change in CFP/YFP emission ratio (480/535 nm) (PPAR γ-LBD; FIG. 4B-a): decrease in CFP/YFP emission ratio (480/535 nm) (increase in FRET)
time for emission ratio decrease to reach plateau (PPAR γ-LBD; FIG. 4B-a): ≤ 1000 s

CC(C)(c1ccc(OCC2CO2)cc1)c1ccc(OCC2CO2)cc1 (stereo not drawn) [BADGE, bisphenol A diglycidyl ether]
change in emission ratio (FRET response) (PPAR γ-LBD; FIG. 7): no significant change in the emission ratio

C[C@]12CCC(=O)C=C1CC[C@@H]1[C@@H]2[C@@H](O)C[C@@]2(C)[C@H]1CC[C@]2(O)C(=O)CO [cortisol]
FRET response over tested concentration range ([2]; PK-15 cells, 1.0×10^−4 to 1.0×10^−11 M, FIG. 5B): did not show the response at any tested concentration

CC12CC1(C)C(=O)N(c1cc(Cl)cc(Cl)c1)C2=O (stereo not drawn) [procymidone]
change in FRET response, antagonist alone ([2]; 100 nM alone, PK-15, FIG. 8): no significant increase in the FRET
FRET response with DHT plus antagonist ([2]; DHT 1.0, 10, 100 nM + 10 μM antagonist, PK-15, FIG. 8): the FRET level increased in a dose dependent manner of DHT

nonylphenol [NP]
relative recruitment ability (RRA) ([1]; RRA=(conc. E2 [50% response]/conc. EDC [50% response])×100, E2 set at 100): 3.0
EC50 ([1]; read-out: EC50 (concentration inducing 50% response of LXXLL motif recruitment to ER αLBD), CHO-K1 cells expressing the probe, from response curves of FIG. 5A, tested 1.0×10^−4 to 1.0×10^−11 M): 260 nM

B1: steroid receptor coactivator 1 NR box II (687-697aa) coactivator peptide (peptide)
peptide: HKILHRLLQEG
modifications: also: segment of CFP–NR box–GGNGG-type linker–LBD–YFP fusion probe
notes: Not tested as a free peptide; also called SRC-1 NR box II
binding result [3]: binds
EC50 of the small-molecule ligand DES for the FRET response of the probe (CHO-K1 cells) [4]: 13 nM
EC50 of the small-molecule ligand E2 for the FRET response of the probe (CHO-K1 cells) [4]: 8 nM
EC50 of the small-molecule ligand NP for the FRET response of the probe (CHO-K1 cells) [4]: 260 nM

HKIAHRAAQEG (also called mutant LXXLL motif)
binding result [5]: no binding
binding result [6]: no binding
